Laboratory results published in patent US20250099517A1, “Use of Lactobacillus reuteri Y7 strain for prevention or treatment of ocular diseases” (Taipei Medical University, priority 2023, published 2025).

Legend:
Type in all cases: in vivo, C57BL/6 mice
[1] = system: Occludin, Claudin-1, ZO-1 gene expression; test: q-PCR of tight junction gene expression in colons; conditions: for gene expressions of ZO-1: p<0.05
Method: (§1) The C57BL/6 mice, which weighed between 23 and 25 g, were divided into seven groups randomly. In each group, the six mice induced by blue light successfully were incorporated in experiments. The samples dissolved in deuterium-depleted water (DDW) were fed to mice through oral tubes once a day. The groups were named and introduced as follows: • (1) Solvent not classified group (NC): The mice were fed with 0.2 ml deuterium-depleted water (DDW) through tubes; • (2) Negative control group (Blue light (BL)): The mice were fed with 0.2 ml deuterium-depleted water (DDW) through tubes and exposed to blue light; • (3) Low-dosage Y7 probiotics group […]): The mice were fed with low-dosage Y7 probiotics (probiotic counts of 1.0×10^8 CFU/ml dissolved in 0.2 ml DDW per day) and exposed to blue light; • (4) High-dosage Y7 probiotics group […]): The mice were fed with high-dosage Y7 probiotics (probiotic counts of 1.0×10^9 CFU/ml dissolved in 0.2 ml DDW per day) and exposed to blue light; • (5) Positive control group (lutein (LU)): The mice were fed with lutein and exposed to blue light. The recommended human dosage of lutein is 30 mg. The mouse cage (48×25×20 cm) placed inside a stainless ventilated box was equipped with blue light boards as blue light sources around and above. In the experiment of animals exposed to blue light, six-week-old mice staying in the mouse cage were fed with drinking water as well as fodders and exposed to 400 Lux blue light illumination under the light-dark cycle of 12-hour light and 12-hour dark. The experiment was aimed at causing mice' late dry macular disease induced by chronic light injuries for simulating a human being's macular disease after long-term exposure to short-wavelength blue light from 3C products in daily life. The eyes of a mouse sacrificed were collected for the following purposes. RNAs extracted with Trizol were reverse-transcribed to cDNAs. Then, the real-time quantitative polymerase chain reaction was enabled to detect gene expressions related to inflammatory hormones and apoptosis such as TNF-α, IL-1B, IL-6, Bax, Bcl-2, Caspase1, Caspase3 and NLRP3 for comparisons with the endogenous level of β-actin, GAPDH or 18S rRNA. [table] The gene expressions related to tight junctions of mice' eyes, buccal mucosas and colons after induction of blue light were analyzed through q-PCR and shown in FIG. 10a, FIG. 10d and FIG. 10g for Occludin, FIG. 10b, FIG. 10e and FIG. 10h for Claudin-1 and FIG. 10c, FIG. 10f and FIG. 10i for ZO-1, respectively.

[2] = system: Bax, Bcl-2, Caspase3 gene expression; test: q-PCR of apoptosis-related gene expression in eyes
Method: as §1, with “apoptosis in test” for “tight junctions of”, “for example, Bax (FIG. 9a), Bcl-2 (FIG. 9b)” for “buccal mucosas”, “Caspase3 (FIG. 9c),” for “colons after induction of blue light”, “analyzed” for “analyzed through q-PCR and shown”, “the experiment.” for “FIG. 10a, FIG. 10d and FIG. 10g for Occludin, FIG. 10b, FIG. 10e and FIG. 10h for Claudin-1 and FIG. 10c, FIG. 10f and FIG. 10i for ZO-1, respectively.”

[3] = system: Occludin, Claudin-1, ZO-1 gene expression; test: q-PCR of tight junction gene expression in buccal mucosas; conditions: Y7H high-dosage group, p<0.05
Excerpt: The C57BL/6 mice, which weighed between 23 and 25 g, were divided into seven groups randomly. In each group, the six mice induced by blue light successfully were incorporated in experiments. The samples dissolved in deuterium-depleted water (DDW) were fed to mice through oral tubes once a day. […] Then, the real-time quantitative polymerase chain reaction was enabled to detect gene expressions related to inflammatory hormones and apoptosis such as TNF-α, IL-1B, IL-6, Bax, Bcl-2, Caspase1, Caspase3 and NLRP3 for comparisons with the endogenous level of β-actin, GAPDH or 18S rRNA. […] The gene expressions related to tight junctions of mice' eyes, buccal mucosas and colons after induction of blue light were analyzed through q-PCR and shown in FIG. 10a, FIG. 10d and FIG. 10g for Occludin, FIG. 10b, FIG. 10e and FIG. 10h for Claudin-1 and FIG. 10c, FIG. 10f and FIG. 10i for ZO-1, respectively.

[4] = system: Occludin, Claudin-1, ZO-1 gene expression; test: q-PCR of tight junction gene expression in eyes; conditions: for gene expressions of Occludin compared with the LU group: p<0.05
Method: as §1

[5] = after intervention of Y7 probiotics (dosage groups not distinguished)

Lactobacillus reuteri Y7 [Y7 probiotics]
gene expressions of Claudin-1 ([1]; Y7H high-dosage group): ascending trend
gene expressions of Occludin ([1]; Y7H high-dosage group): ascending trend
gene expressions of ZO-1 ([1]; Y7H high-dosage group): increased significantly
gene expressions of Claudin-1 ([1]; Y7L low-dosage group): ascending trend
gene expressions of Occludin ([1]; Y7L low-dosage group): ascending trend
gene expressions of ZO-1 ([1]; Y7L low-dosage group): increased significantly
gene expression of Bcl-2 compared with the BL group ([2]; Y7H high-dosage group): increased significantly
gene expression of Bax, closeness to the NC group ([2]; Y7L low-dosage group versus LU group): closer to the NC group than the LU group
gene expression of Bax [2, 5]: significantly inhibited
gene expression of Caspase3 [2, 5]: closer to the NC group
gene expressions of ZO-1 compared with NC, BL or LU groups [3]: increased significantly
gene expressions of Claudin-1 compared with the LU group ([4]; Y7H high-dosage group): descending trend
gene expressions of ZO-1 compared with the LU group ([4]; Y7H high-dosage group): descending trend
gene expressions of Occludin compared with the LU group ([4]; Y7H high-dosage group): decreased significantly
gene expressions of Claudin-1 compared with the LU group ([4]; Y7L low-dosage group): descending trend
gene expressions of ZO-1 compared with the LU group ([4]; Y7L low-dosage group): descending trend
gene expressions of Occludin compared with the LU group ([4]; Y7L low-dosage group): decreased significantly
